Reference: PubChem BioAssay (NCI)
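Test compounds were applied to cells in 96-well plates for 48 hours at 5 doses. At the GI50, growth is halved. TGI denotes the concentration required for complete inhibition of growth.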

How the values were obtained:
Assay in all cases: inhibition of tumour cell growth, NCI panel, 48 h
786-0 renal = system: 786-0 renal
A498 renal = system: A498 renal
ACHN renal = system: ACHN renal
BT-549 breast = system: BT-549 breast
CAKI-1 renal = system: CAKI-1 renal
CCRF-CEM leukemia = system: CCRF-CEM leukemia
COLO 205 colon = system: COLO 205 colon
DU-145 prostate = system: DU-145 prostate
EKVX NSCLC = system: EKVX NSCLC
HCC-2998 colon = system: HCC-2998 colon
HCT-116 colon = system: HCT-116 colon
HCT-15 colon = system: HCT-15 colon
HL-60(TB) leukemia = system: HL-60(TB) leukemia
HOP-62 NSCLC = system: HOP-62 NSCLC
HOP-92 NSCLC = system: HOP-92 NSCLC
HS 578T breast = system: HS 578T breast
HT29 colon = system: HT29 colon
IGROV1 ovarian = system: IGROV1 ovarian
K-562 leukemia = system: K-562 leukemia
KM12 colon = system: KM12 colon
LOX IMVI melanoma = system: LOX IMVI melanoma
M14 melanoma = system: M14 melanoma
MALME-3M melanoma = system: MALME-3M melanoma
MCF7 breast = system: MCF7 breast
MDA-MB-231 breast = system: MDA-MB-231 breast
MDA-MB-435 = system: MDA-MB-435
MOLT-4 leukemia = system: MOLT-4 leukemia
NCI-H226 lung = system: NCI-H226 lung
NCI-H23 lung = system: NCI-H23 lung
NCI-H460 lung = system: NCI-H460 lung
NCI-H522 lung = system: NCI-H522 lung
NCI/ADR-RES ovarian = system: NCI/ADR-RES ovarian
OVCAR-3 ovarian = system: OVCAR-3 ovarian
OVCAR-4 ovarian = system: OVCAR-4 ovarian
OVCAR-5 ovarian = system: OVCAR-5 ovarian
OVCAR-8 ovarian = system: OVCAR-8 ovarian
PC-3 prostate = system: PC-3 prostate
RPMI-8226 leukemia = system: RPMI-8226 leukemia
RXF 393 renal = system: RXF 393 renal
SF-268 CNS = system: SF-268 CNS
SF-295 CNS = system: SF-295 CNS
SF-539 CNS = system: SF-539 CNS
SK-MEL-2 melanoma = system: SK-MEL-2 melanoma
SK-MEL-28 melanoma = system: SK-MEL-28 melanoma
SK-MEL-5 melanoma = system: SK-MEL-5 melanoma
SK-OV-3 ovarian = system: SK-OV-3 ovarian
SN12C renal = system: SN12C renal
SNB-19 CNS = system: SNB-19 CNS
SNB-75 CNS = system: SNB-75 CNS
SR leukemia = system: SR leukemia
SW-620 colon = system: SW-620 colon
T-47D breast = system: T-47D breast
TK-10 renal = system: TK-10 renal
U251 CNS = system: U251 CNS
UACC-62 melanoma = system: UACC-62 melanoma

COc1cc2c(cc1OCCCN1CCN(c3cc(=O)oc4c(C)c(OC)ccc34)CC1)N=C[C@@H]1CCCN1C2=O showed a GI50 (786-0 renal) of 1.05 µM, a TGI (786-0 renal) of 9.62 µM and a GI50 (A498 renal) of 2.02 µM. For the same compound, the TGI (A498 renal) was 3.96 µM, the GI50 (ACHN renal) was 1.86 µM and the TGI (ACHN renal) was 4.55 µM. It also gave a GI50 (BT-549 breast) of 1.21 µM, a TGI (BT-549 breast) of 6.96 µM and a GI50 (CAKI-1 renal) of 2.46 µM. The TGI (CAKI-1 renal) was 7.17 µM, the GI50 (CCRF-CEM leukemia) was 0.122 µM and the TGI (CCRF-CEM leukemia) was 1.36 µM. It also gave a GI50 (COLO 205 colon) of 0.268 µM, a TGI (COLO 205 colon) of 1.43 µM and a GI50 (DU-145 prostate) of 0.935 µM. It also gave a TGI (DU-145 prostate) of over 100 µM, a GI50 (EKVX NSCLC) of 4.05 µM and a TGI (EKVX NSCLC) of over 47.3 µM. The GI50 (HCC-2998 colon) was 1.44 µM, the TGI (HCC-2998 colon) was 2.89 µM and the GI50 (HCT-116 colon) was 1.16 µM. For the same compound, the TGI (HCT-116 colon) was 8.94 µM, the GI50 (HCT-15 colon) was 3.06 µM and the TGI (HCT-15 colon) was over 37.6 µM. It also gave a GI50 (HL-60(TB) leukemia) of 0.456 µM, a TGI (HL-60(TB) leukemia) of 3.83 µM and a GI50 (HOP-62 NSCLC) of 1.64 µM. It also gave a TGI (HOP-62 NSCLC) of 10.3 µM, a GI50 (HOP-92 NSCLC) of 0.329 µM and a TGI (HOP-92 NSCLC) of 1.81 µM. For the same compound, the GI50 (HS 578T breast) was 2.35 µM, the TGI (HS 578T breast) was 15.6 µM and the GI50 (HT29 colon) was 1.16 µM. For the same compound, the GI50 (IGROV1 ovarian) was 1.57 µM, the TGI (IGROV1 ovarian) was 6.05 µM and the GI50 (K-562 leukemia) was 0.456 µM. For the same compound, the TGI (K-562 leukemia) was over 20.9 µM, the GI50 (KM12 colon) was 1.65 µM and the TGI (KM12 colon) was 9.11 µM. For the same compound, the GI50 (LOX IMVI melanoma) was 0.826 µM, the TGI (LOX IMVI melanoma) was 6.87 µM and the GI50 (M14 melanoma) was 1.24 µM. For the same compound, the TGI (M14 melanoma) was 2.69 µM, the GI50 (MALME-3M melanoma) was 1.16 µM and the TGI (MALME-3M melanoma) was 3.59 µM. The GI50 (MCF7 breast) was 0.787 µM, the TGI (MCF7 breast) was over 39.7 µM and the GI50 (MDA-MB-231 breast) was 0.984 µM. It also gave a TGI (MDA-MB-231 breast) of 5.99 µM, a GI50 (MDA-MB-435) of 1.59 µM and a TGI (MDA-MB-435) of 3.79 µM. It also gave a GI50 (MOLT-4 leukemia) of 0.372 µM, a TGI (MOLT-4 leukemia) of 3.7 µM and a GI50 (NCI-H226 lung) of 1.88 µM. The TGI (NCI-H226 lung) was 4.03 µM, the GI50 (NCI-H23 lung) was 1.89 µM and the TGI (NCI-H23 lung) was 5.2 µM. For the same compound, the GI50 (NCI-H460 lung) was 1.45 µM, the TGI (NCI-H460 lung) was over 26.4 µM and the GI50 (NCI-H522 lung) was 0.126 µM. For the same compound, the TGI (NCI-H522 lung) was 1.93 µM, the GI50 (NCI/ADR-RES ovarian) was 16.6 µM and the TGI (NCI/ADR-RES ovarian) was over 88.5 µM. For the same compound, the GI50 (OVCAR-3 ovarian) was 0.471 µM, the TGI (OVCAR-3 ovarian) was 3.65 µM and the GI50 (OVCAR-4 ovarian) was 2 µM. It also gave a TGI (OVCAR-4 ovarian) of 10.1 µM, a GI50 (OVCAR-5 ovarian) of 1.34 µM and a TGI (OVCAR-5 ovarian) of over 100 µM. The GI50 (OVCAR-8 ovarian) was 2.62 µM, the TGI (OVCAR-8 ovarian) was over 100 µM and the GI50 (PC-3 prostate) was 1.19 µM. The TGI (PC-3 prostate) was 12.8 µM, the GI50 (RPMI-8226 leukemia) was 0.214 µM and the TGI (RPMI-8226 leukemia) was 1.32 µM. The GI50 (RXF 393 renal) was 0.424 µM, the TGI (RXF 393 renal) was 1.02 µM and the GI50 (SF-268 CNS) was 0.91 µM. For the same compound, the TGI (SF-268 CNS) was over 20.9 µM, the GI50 (SF-295 CNS) was 2.49 µM and the TGI (SF-295 CNS) was over 30.4 µM. For the same compound, the GI50 (SF-539 CNS) was 1.73 µM, the TGI (SF-539 CNS) was 7.97 µM and the GI50 (SK-MEL-2 melanoma) was 1.09 µM. The TGI (SK-MEL-2 melanoma) was 3.98 µM, the GI50 (SK-MEL-28 melanoma) was 2.56 µM and the TGI (SK-MEL-28 melanoma) was 8.45 µM. For the same compound, the GI50 (SK-MEL-5 melanoma) was 1.61 µM, the TGI (SK-MEL-5 melanoma) was 3.83 µM and the GI50 (SK-OV-3 ovarian) was 10.2 µM. It also gave a TGI (SK-OV-3 ovarian) of over 78.4 µM, a GI50 (SN12C renal) of 1.6 µM and a TGI (SN12C renal) of 6.51 µM. The GI50 (SNB-19 CNS) was 2.52 µM, the TGI (SNB-19 CNS) was over 100 µM and the GI50 (SNB-75 CNS) was 0.866 µM. The TGI (SNB-75 CNS) was 3.22 µM, the GI50 (SR leukemia) was 0.248 µM and the TGI (SR leukemia) was 0.598 µM. The GI50 (SW-620 colon) was 1.81 µM, the TGI (SW-620 colon) was over 100 µM and the GI50 (T-47D breast) was 1.17 µM. For the same compound, the GI50 (TK-10 renal) was 1.67 µM, the TGI (TK-10 renal) was over 100 µM and the GI50 (U251 CNS) was 1.58 µM. It also gave a TGI (U251 CNS) of over 100 µM, a GI50 (UACC-62 melanoma) of 1.36 µM and a TGI (UACC-62 melanoma) of 2.87 µM.
